Measurements published in US8506950B2, “Degradable microcapsules” (ETH Zurich, priority 2008, dated 2013).

What was measured:
[1] = molecular target: T1, rLHR (Rattus norvegicus, UniProt P16235); experiment: bLH-dependent luciferase expression in stable rLHR clone 6 (CK04); assay type: cell-based; parameters: Full-length cDNAs encoding the LHRs of rat (r) and bovine (b) origin; expressed in transfected cells; host or cells: CK04: HEK293T stably cotransfected with pLEN-rLHR and pZeoSV2(+), clone 6; conditions: clone 6, 500 ng/ml bLH, pCRE-Luc
Procedure: HEK293T cells were cotransfected with pLEN-LHR and pZeoSV2. After clonal expansion several single clones were transiently transfected with pCRE-Luc and screened for the functional expression of rLHR by their ability to respond to bLH. […] (□) no bLH; (▪) 500 ng/ml bLH. Luciferase expression was expressed as relative light units (RLU).
Functional expression of LHRs on the cell surface results in the stimulation of PKA and an increase of intracellular cAMP in response to bLH. It was evaluated whether the activated LHR-signaling may induce a PKA-responsive promoter. […] 24 hours post-transfection the cells were induced by bLH and the SEAP expression was determined over time. […] In comparing rLHR- and bLHR-expressing cells a 3-fold increase in maximal SEAP expression in response to bLH of the rLHR over the bLHR was detected. […]
The intracellular cAMP production of cells was quantified using the cAMP Fluorescence Polarization (FP) Biotrak Immunoassay System (GE Healthcare Bio-Sciences GmbH, Otelfingen, Switzerland, Cat No. RPN3595) according to the manufacturer's protocol. The expression of firefly luciferase was determined with the Tropix Luciferase Assay Kit (Applied Biosystems, Bedford, USA, Cat No. BC100L). […] Enhanced YFP-expression was detected by fluorescence microscopy (Leica Microsystems, Wetzlar, Germany)

[2] = molecular target: T1, rLHR; experiment: Cellulase activity assay of supernatants of CK04 cells transfected with pCK71; assay type: cell-based; parameters: Full-length cDNAs encoding the LHRs of rat (r) and bovine (b) origin; expressed in transfected cells; host or cells: CK04: HEK293T stably cotransfected with pLEN-rLHR and pZeoSV2(+), clone 6; conditions: CK04 + pCK71, supernatants 48 h post-induction
Procedure: Cellulase activity assay performed from cell culture supernatants 48 h post-induction.
A novel bLH-responsive microcapsule degradation system was established by placing an engineered secreted version of the lytic enzyme endo-1.4-beta-glucanase gene (cellulase) under control of PCRE. […] The protein had the estimated size of 57 kDa. Additionally, the functionality of the pCK71-encoded cellulase was evaluated by performing a cellulase activity assay (FIG. 12).
Cellulase was quantified using EnzCheck® fluorescent substrate (Molecular Probes, Eugene, Oreg., USA) according to the manufacturer's protocol: 20 μl of cell culture supernatant was centrifuged at 16,000×g for one minute to remove cell debris and 15 μl of appropriate dilutions in PBS (Invitrogen, cat. no. 21600-069) were transferred to a 384-well plate containing 15 μl sodium acetate buffer (200 mM sodium acetate, pH 5.5) per well supplemented with 3 μl substrate solution. Plates were incubated at 37° C. for 30 minutes and fluorescence intensity was measured subsequently at 340 nm (excitation wavelength) and 450 nm (emission wavelength) in a Genios Pro multiwell plate reader (Tecan A G, Maennedorf, Switzerland). Absolute cellulase levels were determined by comparing the fluorescence intensities to readings of standardized solutions containing known concentrations of Aspergillus niger cellulase (Sigma, cat. no. 22178). […]

T1 sequence (P16235 27-700): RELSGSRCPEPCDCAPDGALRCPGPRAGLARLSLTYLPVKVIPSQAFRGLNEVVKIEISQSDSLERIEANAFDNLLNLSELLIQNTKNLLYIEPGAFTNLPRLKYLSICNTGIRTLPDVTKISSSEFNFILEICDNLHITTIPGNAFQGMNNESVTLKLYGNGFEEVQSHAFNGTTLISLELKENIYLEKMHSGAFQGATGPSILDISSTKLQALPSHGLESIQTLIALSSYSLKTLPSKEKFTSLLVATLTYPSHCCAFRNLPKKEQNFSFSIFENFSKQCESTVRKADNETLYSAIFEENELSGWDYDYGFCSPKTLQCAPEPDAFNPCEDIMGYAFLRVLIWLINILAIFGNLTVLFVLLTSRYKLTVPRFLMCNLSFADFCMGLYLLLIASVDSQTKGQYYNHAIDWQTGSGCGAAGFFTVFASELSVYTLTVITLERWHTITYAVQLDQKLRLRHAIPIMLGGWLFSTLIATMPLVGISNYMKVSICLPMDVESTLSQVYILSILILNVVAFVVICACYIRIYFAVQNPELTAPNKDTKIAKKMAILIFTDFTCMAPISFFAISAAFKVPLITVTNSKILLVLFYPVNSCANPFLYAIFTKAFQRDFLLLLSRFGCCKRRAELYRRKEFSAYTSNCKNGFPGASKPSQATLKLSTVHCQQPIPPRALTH

## bovine luteinizing hormone [bLH]
[1]
  induction of luciferase expression in response to bLH: 17.0±0.2 fold
[2]
  bLH-dependent increase in cellulase activity: 8.4±0.2 fold
